According to patent publication EP0829478A2, “N-Benzylimidazolium and N-benzyltriazolium derivatives, their preparation and their use as antifungal and antimycotic agents” (F. HOFFMANN-LA ROCHE AG, priority 1996, dated 1998):
Structures can show the parent of a compound that is named as a salt. Where two headings read alike, the source gives them in different places.

Key:
Candida albicans = test: Systemic candidiasis model in rats, ED50; format: in vivo; conditions: 336 h
Description: (§1) Male Fisher rats, strain F344/DuCrj, were employed for experimental infection models such as systemic candidiasis, systemic aspergillosis and pulmonary aspergillosis model. Immunocompetent 4 weeks old rats were used for systemic candidiasis or systemic aspergillosis which occurred her infection with Candida albicans conidia of 5x10^6/rat or with Aspergillus fumigatus conidia of 6x10^5/rat via tail vein. Otherwise for pulmonary aspergillosis model, rats had been immunosuppressed with cortisone acetate treatments prior to infection with 2x10^5/rat intratrachially. Treatments were given twice on the first day and once daily on following 4 days both for systemic and pulmonary aspergillosis (Ib.i.+4q.d.), for systemic candidiasis rats were treated at 0, 4, 24, and 48 h after infection (Ib.i.d.+2q.d.).

Aspergillus fumigatus [1] = test: Pulmonary aspergillosis model in immunosuppressed rats, ED50; format: in vivo; conditions: 336 h
Description: as §1

Aspergillus fumigatus [2] = test: Systemic aspergillosis model in rats, ED50; format: in vivo; conditions: 336 h
Description: as §1

[3] = Conversion of the azolium compounds to ketoconazole / itraconazole on incubation in human plasma; format: in vitro ADME; conditions: 10µg/ml, 37°C; for metabolised at 5 min / remaining at 5 min: incubation time 5 min
Method: The compounds of formula I were incubated with human plasma at a concentration of 10µg/ml at 37°C for up to 120 min.

[4] = Water solubility (Table 1); format: physicochemical
[5] = iv, read-out: Effective dose 50% (ED50) Systemic candidiasis i.v., male Fisher rats F344/DuCrj, immunocompetent, i.v., treated at 0, 4, 24 and 48 h after infection, determined on day 14 after infection
[6] = po, read-out: Effective dose 50% (ED50) Systemic candidiasis p.o., male Fisher rats F344/DuCrj, immunocompetent, p.o., treated at 0, 4, 24 and 48 h after infection, determined on day 14 after infection
[7] = iv, read-out: Effective dose 50% (ED50) Pulmonay aspergillosis i.v., male Fisher rats F344/DuCrj immunosuppressed with cortisone acetate, i.v., twice on first day, once daily on following 4 days, determined on day 14 after infection
[8] = po, read-out: Effective dose 50% (ED50) Pulmonay aspergillosis p.o., male Fisher rats F344/DuCrj immunosuppressed with cortisone acetate, p.o., twice on first day, once daily on following 4 days, determined on day 14 after infection
[9] = iv, read-out: Effective dose 50% (ED50) Systemic aspergillosis i.v., male Fisher rats F344/DuCrj, immunocompetent, i.v., twice on first day, once daily on following 4 days, determined on day 14 after infection
[10] = po, read-out: Effective dose 50% (ED50) Systemic aspergillosis p.o., male Fisher rats F344/DuCrj, immunocompetent, p.o., twice on first day, once daily on following 4 days, determined on day 14 after infection
[11] = ketoconazole formed, read-out: Observed (%) KCZ
[12] = remaining parent compound, read-out: Observed (%) Comp. I
[13] = solvent a = distilled water, read-out: solubility
[14] = mcilvaine buffer, pH 8.02, aqueous buffer

Cc1cc(C[n+]2cnn(C[C@](O)(c3ccc(F)cc3F)[C@@H](C)c3nc(-c4ccc(C#N)cc4)cs3)c2)cc(C)c1OC(=O)[C@@H]1CCCN1 [Example 16, 1-[(2R,3R)-3-[4-(4-Cyanophenyl)-thiazol-2-yl]-2-(2,4-difluorophenyl)-2-hydroxybutyl]-4-[(S)-3,5-dimethyl-4-(pyrrolidine-2-carbonyloxy)-benzyl]-1H-[1,2,4]triazol-4-ium bromide trifluoroacetic acid salt]
ED50 (Candida albicans; [5]): 3.5 µmol/kg | ED50 (Candida albicans; [6]): < 2.1 µmol/kg | ED50 (Aspergillus fumigatus [1]; [7]): 17 µmol/kg | ED50 (Aspergillus fumigatus [1]; [8]): 18 µmol/kg | ED50 (Aspergillus fumigatus [2]; [9]): > 35 µmol/kg | ED50 (Aspergillus fumigatus [2]; [10]): > 55 µmol/kg

CC(=O)Oc1ccc(C[n+]2ccn(C[C@]3(c4ccc(Cl)cc4Cl)OC[C@H](COc4ccc(N5CCN(C(C)=O)CC5)cc4)O3)c2)cc1C (relative stereo) [Example 11, 1-(4-Acetoxy-3-methyl-benzyl)-3-[(2R*,4S*)-4-[4-(4-acetyl-piperazin-1-yl)-phenoxymethyl]-2-(2,4-dichloro-phenyl)-[1,3]dioxolan-2-ylmethyl]-3H-imidazol-1-ium bromide]
metabolised at 5 min [3, 11]: 100% | remaining at 5 min [3, 12]: < 5%

CC(=O)Oc1c(Cl)cc(C[n+]2ccn(CC3(c4ccc(Cl)cc4Cl)OCC(COc4ccc(N5CCN(C(C)=O)CC5)cc4)O3)c2)cc1Cl (stereo not drawn) [Example 6, 1-(4-Acetoxy-3,5-dichloro-benzyl)-3-[(2R*,4S*)-[4-[4-(4-acetyl-piperazin-1-yl)-phenoxymethyl]-2-(2,4-dichloro-phenyl)-[1,3]dioxolan-2-ylmethyl]-3H-imidazol-1-ium bromide]
solubility [4, 13]: 6500 µg/mL

CCC(C)n1ncn(-c2ccc(N3CCN(c4ccc(OCC5COC(Cn6c[n+](Cc7cc(C)c(OC(=O)c8cccnc8)c(C)c7)cn6)(c6ccc(Cl)cc6Cl)O5)cc4)CC3)cc2)c1=O.[Br-] (centres unmarked) [Example 2, 4-(4-(Pyridine-3-carbonyloxy)-3,5-dimethylbenzyl)-1-[4-(4-{4-(4-(1-(2-butyl)-5-oxo-1,5-dihydro-[1,2,4]triazol-4-yl)phenyl]piperazin-1-yl}phenoxymethyl)-2-(2,4-dichlorophenyl)-[1,3]dioxolan-2-ylmethyl]-1H-[1,2,4]triazol-4-ium bromide]
solubility [4, 14]: 400 µg/mL

CCC(C)n1ncn(-c2ccc(N3CCN(c4ccc(OCC5COC(Cn6cncn6)(c6ccc(Cl)cc6Cl)O5)cc4)CC3)cc2)c1=O (centres unmarked) [Itraconazole, reference compound]
ED50 (Aspergillus fumigatus [2]; po, read-out: Effective dose 50% (ED50) Systemic aspergillosis p.o.): 17 µmol/kg

COc1cc(C[n+]2ccn(CC3(c4ccc(Cl)cc4Cl)OCC(COc4ccc(N5CCN(C(C)=O)CC5)cc4)O3)c2)ccc1OC(C)=O (centres unmarked) [Example 12]
solubility [4, 13]: 5000 µg/mL

CC(=O)Oc1c(C)cc(C[n+]2ccn(CC(OCc3ccc(Cl)cc3Cl)c3ccc(Cl)cc3Cl)c2)cc1C (racemic) [Example 7, dl-1-(4-Acetoxy-3,5-dimethyl-benzyl)-3-[2-(2,4-dichloro-benzyloxy)-2-(2,4-dichloro-phenyl)-ethyl]-3H-imidazol-1-ium bromide]
solubility [4, 13]: > 1000 µg/mL

CC(=O)Oc1ccc(C[n+]2ccn(C[C@]3(c4ccc(Cl)cc4Cl)OC[C@H](COc4ccc(N5CCN(C(C)=O)CC5)cc4)O3)c2)cc1 (relative stereo) [Example 9, 1-(4-Acetoxybenzyl)-3-[(2R*,4S*)-4-[4-(4-acetylpiperazin-1-yl)phenoxymethyl]-2-(2,4-dichlorophenyl)-[1,3]dioxolan-2-ylmethyl]-3H-imidazol-1-ium bromide]
metabolised at 5 min [3, 11]: 89% | remaining at 5 min [3, 12]: < 5%

CO[C@H]1[C@@H](Cn2c[n+](Cc3cc(C)c(OC(C)=O)c(C)c3)cn2)[C@H](CCc2ccc(C)cc2)CCC1(C)C.[Br-] [Example 8, 4-(4-acetoxy-3,5-dimethyl-benzyl)-1-[(1R,2S,6R)-2-methoxy-3,3-dimethyl-6-(2-p-tolyl-ethyl)-cyclohexylmethyl]-1H-[1,2,4]triazol-4-ium bromide]
solubility ([4]; distilled water, water): 14000 µg/mL

CCC(C)n1ncn(-c2ccc(N3CCN(c4ccc(OCC5COC(Cn6c[n+](Cc7cc(C)c(OC(C)=O)c(C)c7)cn6)(c6ccc(Cl)cc6Cl)O5)cc4)CC3)cc2)c1=O (centres unmarked) [Example 1]
metabolised at 1 h ([3]; itraconazole formed, incubation time 60 min, read-out: Observed (%) ICZ): 28% | remaining at 1 h ([3]; remaining parent compound, incubation time 60 min, read-out: Observed (%) Comp. I): 47%

CNCC(=O)Oc1c(C)cc(C[n+]2cnn(C[C@](O)(c3ccc(F)cc3F)[C@@H](C)c3nc(-c4ccc(C#N)cc4)cs3)c2)cc1C [Example 23, 1-[(2R,3R)-3-[4-(4-Cyanophenyl)thiazol-2-yl]-2-(2,4-difluorophenyl)-2-hydroxybutyl]-4-[3,5-dimethyl-4-[(methylamino)acetoxy]benzyl]-1H-[1,2,4]triazol-4-ium bromide trifluoroacetic acid salt]
ED50 (Candida albicans; [5]): 4.6 µmol/kg | ED50 (Candida albicans; [6]): 4.7 µmol/kg | ED50 (Aspergillus fumigatus [1]; [7]): 8 µmol/kg | ED50 (Aspergillus fumigatus [1]; [8]): 17 µmol/kg | ED50 (Aspergillus fumigatus [2]; [9]): 17 µmol/kg | ED50 (Aspergillus fumigatus [2]; [10]): 19 µmol/kg

OC(Cn1cncn1)(Cn1cncn1)c1ccc(F)cc1F [Fluconazole, reference compound]
ED50 (Candida albicans; po, read-out: Effective dose 50% (ED50) Systemic candidiasis p.o.): > 2.9 µmol/kg

CCCCCC(=O)Oc1c(C)cc(C[n+]2cnn(CC3(c4ccc(Cl)cc4Cl)OCC(COc4ccc(N5CCN(c6ccc(-n7cnn(C(C)CC)c7=O)cc6)CC5)cc4)O3)c2)cc1C (racemic) [Example 13, dl-1-[4-(4-{4-[4-(1-sec-butyl-5-oxo-1,5-dihydro-[1,2,4]triazol-4-yl)-phenyl]-piperazin-1-yl}-phenoxymethyl)-2-(2,4-dichloro-phenyl)-[1,3]dioxolan-2-ylmethyl]-4-(4-hexanoyloxy-3,5-dimethyl-benzyl)-1H-[1,2,4]triazol-4-ium methanesulfonate]
solubility ([4]; mcilvaine buffer, pH 8.02, aqueous buffer, solvent b = Mellvaine buffer(pH8.02), read-out: solubility): 500 µg/mL

CC(=O)N1CCN(c2ccc(OC[C@H]3CO[C@](Cn4cc[n+](Cc5cc(C)c(OC(=O)C(C)C)c(C)c5)c4)(c4ccc(Cl)cc4Cl)O3)cc2)CC1.[Br-] (relative stereo) [Example 5, 3-[(2R*,4S*)-4-[4-(4-Acetyl-piperazin-1-yl)-phenoxymethyl]-2-(2,4-dichloro-phenyl)-[1,3]dioxolan-2-ylmethyl]-1-(4-isobutyryloxy-3,5-dimethyl-benzyl)-3H-imidazol-1-ium bromide]
solubility ([4]; distilled water, water): > 1000 µg/mL

CCC(C)n1ncn(-c2ccc(N3CCN(c4ccc(OCC5COC(Cn6c[n+](Cc7cc(C)c(OC(=O)c8ccccc8)c(C)c7)cn6)(c6ccc(Cl)cc6Cl)O5)cc4)CC3)cc2)c1=O.[Br-] (centres unmarked) [Example 3, 4-(4-Benzoyloxy-3,5-dimethylbenzyl)-1-[4-(4-{4-[4-(1-(2-butyl)-5-oxo-1,5-dihydro-[1,2,4]triazol-4-yl)phenyl]piperazin-1-yl}phenoxymethyl)-2-(2,4-dichlorophenyl)-[1,3]dioxolan-2-ylmethyl]-1H-[1,2,4]triazol-4-ium bromide]
solubility [4, 14]: 400 µg/mL

CC(=O)Oc1c(C)cc(C[n+]2ccn(CC3(c4ccc(Cl)cc4Cl)OCC(COc4ccc(N5CCN(C(C)=O)CC5)cc4)O3)c2)cc1C (stereo not drawn) [Example 4, 1-(4-Acetoxy-3,5-dimethyl-benxyl)-3-[(2R*,4S*)-4-[4-(4-acetyl-piperazin-1-yl)-phenoxymethyl]-2-(2,4-dichloro-phenyl)-[1,3]dioxolan-2-ylmethyl]-3H-imidazol-1-ium bromide]
metabolised at 20 min ([3]; ketoconazole formed, incubation time 20 min, read-out: Observed (%) KCZ): 74% | remaining at 20 min ([3]; remaining parent compound, incubation time 20 min, read-out: Observed (%) Comp. I): 19%

CC(=O)N1CCN(c2ccc(OCC3COC(Cn4cc[n+](Cc5ccc(OC(=O)C(C)(C)C)cc5)c4)(c4ccc(Cl)cc4Cl)O3)cc2)CC1 (stereo not drawn) [Example 10, 3-[(2R*,4S*)-4-[4-(4-Acetylpiperazin-1-yl)phenoxymethyl]-2-(2,4-dichlorophenyl)-[1,3]dioxolan-2-ylmethyl]-1-[4-(2,2-dimethylpropionyloxy)benzyl]-3H-imidazol-1-ium bromides]
metabolised at 10 min ([3]; ketoconazole formed, incubation time 10 min, read-out: Observed (%) KCZ): 80% | remaining at 10 min ([3]; remaining parent compound, incubation time 10 min, read-out: Observed (%) Comp. I): < 5%
